Measurements published in ChEMBL document CHEMBL1201862, “PubChem BioAssay data set” (2004).
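Test compounds were applied to cells in 96-well plates for 48 hours at 5 doses. Abbreviation: GI50, concentration required for 50% inhibition of growth.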 The source made the active and inactive calls. Rule as the data show it: active = GI50 up to about 1.1 µM and inactive = higher.

Tests used:
Experiment in all cases: DTP human tumour cell line panel, 48 h
[1] = system: ACHN
[2] = system: M19-MEL
[3] = system: K562
[4] = system: SK-MEL-5
[5] = system: Malme-3M
[6] = system: HL-60
[7] = system: HCT-116
[8] = system: HCC 2998
[9] = system: CAKI-1
[10] = system: OVCAR-5
[11] = system: HOP-92
[12] = system: M14
[13] = system: 786-0
[14] = system: LOX IMVI
[15] = system: NCI-H23
[16] = system: KM12
[17] = system: HOP-62
[18] = system: SF-268
[19] = system: KM-20L2
[20] = system: LXFL 529
[21] = system: SR
[22] = system: RPMI-8226
[23] = system: SK-MEL-28
[24] = system: MOLT-4
[25] = system: IGROV-1
[26] = system: SF-295
[27] = system: SN12C
[28] = system: U-251
[29] = system: SW-620
[30] = system: A549
[31] = system: HOP-18
[32] = system: HCT-15
[33] = system: COLO 205
[34] = system: UACC-62
[35] = system: TK-10
[36] = system: OVCAR-3
[37] = system: RXF 393
[38] = system: DMS-114
[39] = system: SNB-78
[40] = system: SK-OV-3
[41] = system: DLD-1
[42] = system: EKVX
[43] = system: CCRF-CEM
[44] = system: SK-MEL-2
[45] = system: UO-31
[46] = system: UACC-257
[47] = system: HT-29
[48] = system: NCI-H522
[49] = system: SNB-19
[50] = system: OVCAR-8
[51] = system: SNB-75
[52] = system: NCI-H226
[53] = system: DMS-273
[54] = system: SF-539
[55] = system: OVCAR-4
[56] = system: XF498
[57] = system: A498
[58] = system: NCI-H460

Measured: GI50

Oc1ncnc2c1CCCN2
> 100 µM: [32]
inactive: [1] > 100 µM | [2] > 100 µM | [3] > 100 µM | [4] > 100 µM | [5] > 100 µM | [6] > 100 µM | [7] > 100 µM | [8] > 100 µM | [9] > 100 µM | [10] > 100 µM | [11] > 100 µM | [12] > 100 µM | [13] > 100 µM | [14] > 100 µM | [15] > 100 µM | [16] > 100 µM | [17] > 100 µM | [18] > 100 µM | [19] > 100 µM | [20] > 100 µM | [21] > 100 µM | [22] > 100 µM | [23] > 100 µM | [24] > 100 µM | [25] > 100 µM | [26] > 100 µM | [27] > 100 µM | [28] > 100 µM | [29] > 100 µM | [30] > 100 µM | [31] 16.5 µM | [33] > 100 µM | [34] > 100 µM | [35] > 100 µM | [36] > 100 µM | [37] > 100 µM | [38] > 100 µM | [39] > 100 µM | [40] > 100 µM | [41] > 100 µM | [42] > 100 µM | [43] > 100 µM | [44] > 100 µM | [45] > 100 µM | [46] > 100 µM | [47] > 100 µM | [48] > 100 µM | [49] > 100 µM | [50] > 100 µM | [51] > 100 µM

O=S(=O)(CC1=NC2C=CC=CC2N=C1)NCc1ccccc1 (stereo not drawn)
inactive: [1] > 100 µM | [2] > 100 µM | [52] 78.7 µM | [3] > 100 µM | [4] 40 µM | [5] > 100 µM | [6] 69.5 µM | [7] > 100 µM | [9] > 100 µM | [10] > 100 µM | [11] 75.3 µM | [12] > 100 µM | [13] > 100 µM | [14] > 100 µM | [15] > 100 µM | [16] > 100 µM | [17] > 100 µM | [18] > 100 µM | [19] > 100 µM | [20] > 100 µM | [22] > 100 µM | [53] > 100 µM | [23] > 100 µM | [54] > 100 µM | [24] 69.5 µM | [25] > 100 µM | [26] > 100 µM | [27] > 100 µM | [28] > 100 µM | [29] > 100 µM | [30] > 100 µM | [31] > 100 µM | [33] > 100 µM | [34] > 100 µM | [55] 55.2 µM | [35] > 100 µM | [36] 83.2 µM | [37] 12.9 µM | [56] 24.3 µM | [40] > 100 µM | [41] > 100 µM | [42] > 100 µM | [43] > 100 µM | [44] > 100 µM | [57] > 100 µM | [47] > 100 µM | [48] 76.2 µM | [49] > 100 µM | [50] > 100 µM | [58] > 100 µM | [51] > 100 µM
active: [8] 0.0156 µM
81.7 µM: [32]

COc1ccccc1/N=C(\N)N/N=C/c1c[nH]c2ccccc12
inactive: [1] 10.3 µM | [2] 11.1 µM | [52] 14.4 µM | [3] 2.22 µM | [4] 2.78 µM | [5] 2.58 µM | [6] 7.29 µM | [7] 6.81 µM | [8] 2.55 µM | [9] 13.3 µM | [10] 13.9 µM | [12] 3.25 µM | [13] 13.3 µM | [14] 10.4 µM | [15] 4.79 µM | [16] 14.9 µM | [17] 16.3 µM | [18] 14.2 µM | [19] 13.3 µM | [20] 2.23 µM | [21] 5.01 µM | [22] 3.13 µM | [23] 3.57 µM | [54] 13.5 µM | [24] 3.13 µM | [25] 11 µM | [26] 8.97 µM | [27] 10.4 µM | [28] 11.6 µM | [29] 2.72 µM | [30] 13.2 µM | [31] 18.6 µM | [33] 1.67 µM | [34] 11.5 µM | [55] 16.8 µM | [35] 16.8 µM | [36] 12.2 µM | [37] 14.1 µM | [38] 3.39 µM | [56] 4.42 µM | [39] 6.85 µM | [40] 15.6 µM | [41] 13.8 µM | [42] 11 µM | [43] 5.93 µM | [44] 6.46 µM | [45] 13.3 µM | [46] 2.39 µM | [47] 4.01 µM | [48] 3.65 µM | [49] 15.3 µM | [50] 13 µM | [58] 8.87 µM | [51] 12.3 µM
4.2 µM: [32]

OCc1cc2ccncc2c2c1[nH]c1ccccc12
inactive: [1] 3.83 µM | [52] 2.13 µM | [3] 7.55 µM | [4] 8 µM | [5] 6.95 µM | [6] 4.84 µM | [7] 3.74 µM | [8] 2.44 µM | [9] 4.65 µM | [10] 3.95 µM | [11] 12.1 µM | [12] 13.2 µM | [14] 3.44 µM | [15] 7.26 µM | [16] 4.68 µM | [18] 4.66 µM | [20] 4.58 µM | [21] 2.83 µM | [22] 6.31 µM | [53] 4.04 µM | [23] 9.35 µM | [54] 3.72 µM | [24] 3.66 µM | [25] 2.73 µM | [26] 5.81 µM | [27] 5.42 µM | [28] 6.25 µM | [29] 3.29 µM | [30] 4.37 µM | [31] 2.52 µM | [33] 6.82 µM | [55] 6.95 µM | [35] 11.8 µM | [37] 2.96 µM | [38] 6.38 µM | [56] 5.25 µM | [39] 13.2 µM | [41] 3.96 µM | [42] 3.91 µM | [43] 7.33 µM | [44] 12.1 µM | [45] 7.53 µM | [57] 4.5 µM | [46] 14.8 µM | [47] 4.58 µM | [49] 6.49 µM | [50] 4.95 µM | [58] 2.76 µM | [51] 4.51 µM
5.64 µM: [32]

Nc1nncc2c1ccn2C1OC(CO)C(O)C1O (stereo not drawn)
> 100 µM: [32]
inactive: [1] > 100 µM | [2] > 100 µM | [52] > 100 µM | [3] > 100 µM | [4] > 100 µM | [5] > 100 µM | [6] > 100 µM | [7] > 100 µM | [8] > 100 µM | [10] > 100 µM | [11] > 100 µM | [12] > 100 µM | [14] > 100 µM | [15] > 100 µM | [16] > 100 µM | [17] > 100 µM | [18] > 100 µM | [19] > 100 µM | [20] > 100 µM | [21] > 100 µM | [22] > 100 µM | [53] > 100 µM | [23] 82.8 µM | [54] > 100 µM | [24] > 100 µM | [25] > 100 µM | [26] > 100 µM | [27] > 100 µM | [28] > 100 µM | [29] > 100 µM | [30] > 100 µM | [31] > 100 µM | [33] > 100 µM | [34] > 100 µM | [55] > 100 µM | [35] > 100 µM | [36] > 100 µM | [37] > 100 µM | [38] > 100 µM | [39] > 100 µM | [40] > 100 µM | [41] > 100 µM | [42] > 100 µM | [43] > 100 µM | [44] > 100 µM | [45] > 100 µM | [57] > 100 µM | [46] > 100 µM | [47] > 100 µM | [49] > 100 µM | [50] > 100 µM | [58] > 100 µM | [51] > 100 µM
